Where two headings read alike, the source gives them in different places. Bounds are passed on as bounds.

Assay [1] deals with Jurkat (clone E6-1) cells, NFAT luciferase reporter. Description: Jurkat Reporter Assay (NFAT Luciferase). In kind it is cell-based. The note with it: Homo sapiens.
Assay [2] has as its system Phospho-Zap70 (Y-319) in Jurkat wild-type (clone E6-1) cells. Description: Jurkat pZAP70 HTRF Assay. The following applies: Homo sapiens. In kind it is cell-based.
Assay [3] has as its target Recombinant human Cbl-b (aa 36-427) (Homo sapiens (Human), UniProt Q13191). Description: Cbl-b Biochemical Assay (TR-FRET). The note with it: read-out: TR-FRET hCbl-b IC50. The method in brief: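 IC50 from 4-parameter fit of % inhibition (DMSO max, reference-inhibitor min), duplicate ten-point series. Compound preincubated with 6 nM Cbl-b, then Src-Zap70 (1-2.5 nM)/0.5 mM ATP reaction 60 min RT; EDTA quench with labelled UBE2D2-Ub and streptavidin-terbium, 60 min, HTRF at 520 nm.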
In general terms: TR-FRET usually uses a lanthanide donor and a delayed reading to cut background.

[4] abbreviates: 6 h, read-out: Jurkat NFAT EC50 (μM).
Setting [5] is: 3 h, read-out: ZAP70 Jurkat EC50 (μM).
[6] abbreviates: anti-CD3 stimulation, 6 hr, read-out: Jurkat NFAT EC50.
Setting [7] is: anti-CD3 5 μg/ml, 3 hr, read-out: ZAP70 Jurkat EC50.

Sequence of Recombinant human Cbl-b (aa 36-427) (Q13191 36-427): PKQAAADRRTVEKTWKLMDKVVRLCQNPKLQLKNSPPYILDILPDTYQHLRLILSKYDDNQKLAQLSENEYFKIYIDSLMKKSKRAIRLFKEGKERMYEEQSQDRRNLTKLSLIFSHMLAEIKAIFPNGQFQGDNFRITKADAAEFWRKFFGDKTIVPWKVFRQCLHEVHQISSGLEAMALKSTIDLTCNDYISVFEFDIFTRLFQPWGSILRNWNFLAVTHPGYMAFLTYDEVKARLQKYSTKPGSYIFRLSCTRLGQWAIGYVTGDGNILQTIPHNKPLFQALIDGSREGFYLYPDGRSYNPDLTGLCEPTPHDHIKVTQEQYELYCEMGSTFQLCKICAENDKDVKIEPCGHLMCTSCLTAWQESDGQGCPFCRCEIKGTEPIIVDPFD

The term EC50 denotes the concentration needed to bring the measured effect to its halfway point. In the case of `CCNc1cc(-c2ccc(F)cc2-c2nncn2C)cc(N2Cc3c(cc(COCCOC)cc3C(F)(F)F)C2=O)n1`, the figures for the EC50 in assay [1] (setting [4]) and in assay [2] (setting [5]) were under 0.2 µM and 0.2 to 1 µM, respectively.
The IC50 is the point on the concentration scale where inhibition reaches its midpoint. As for `CCNc1cc(-c2c(-c3nncn3C)cnn2C)cc(N2Cc3c(cc(CO[C@@H]4CCC[C@@H]4O)cc3C(F)(F)F)C2=O)n1` (racemic) [ADB-1, (rac)-2-[6-(ethylamino)-4-[2-methyl-4-(4-methyl-1,2,4-triazol-3-yl)pyrazol-3-yl]pyridin-2-yl]-6-({[(1R,2S)-2-hydroxycyclopentyl]oxy}methyl)-4-(trifluoromethyl)-3H-isoindol-1-one], in assay [3], the IC50 was at most 200 nM. The EC50 in assay [1] (setting [6]) lay within 0.2 to 1 µM; in assay [2] (setting [7]), 1 to 10 µM.
The corresponding values for `C[C@H](NCC1(O)CCC1)c1cc2c(c(C(F)(F)F)c1)CN(c1cc(-c3ccccc3-c3nncn3C)cc(C3CC3)n1)C2=O` (single isomer, unassigned) [AFT-2] are at most 200 nM, under 0.2 µM and under 0.2 µM.
The corresponding values for `C[C@@H](NCC1(O)CCC1)c1cc2c(c(C(F)(F)F)c1)CN(c1cc(-c3ccccc3-c3nncn3C)cc(C3CC3)n1)C2=O` (single isomer, unassigned) [AFU-1] are at most 200 nM, under 0.2 µM and under 0.2 µM.
On to `CCNc1cc(-c2ccc(C#N)cc2-c2nncn2C)cc(N2Cc3c(cc([C@@H](O)CN(C)C)cc3C(F)(F)F)C2=O)n1` (single isomer, unassigned) [AGK-1], for which the IC50 in assay [3] is at most 200 nM. Further, the figures for the EC50 in assay [1] (setting [6]) and in assay [2] (setting [7]) were under 0.2 µM and 0.2 to 1 µM, respectively.
`CCNc1cc(-c2ccc(C#N)cc2-c2nncn2C)cc(N2Cc3c(cc([C@H](O)CN(C)C)cc3C(F)(F)F)C2=O)n1` (single isomer, unassigned) [AGL-1]: the IC50 in assay [3] was at most 200 nM. Also, the EC50 in assay [1] (setting [6]) was under 0.2 µM; in assay [2] (setting [7]) it was 0.2 to 1 µM.
Regarding `CCNc1cc(-c2c(-c3nncn3C)cnn2C)cc(N2Cc3c(cc(CN[C@@H]4CCC[C@@H]4O)cc3C(F)(F)F)C2=O)n1` [ADF-2, 2-[6-(Ethylamino)-4-[2-methyl-4-(4-methyl-1,2,4-triazol-3-yl)pyrazol-3-yl]pyridin-2-yl]-6-({[(1R,2S)-2-hydroxycyclopentyl]amino}methyl)-4-(trifluoromethyl)-3H-isoindol-1-one], the IC50 in assay [3] is at most 200 nM. In addition, the EC50 in assay [1] (setting [6]) and in assay [2] (setting [7]) was under 0.2 µM in each case.
For `CCNc1cc(-c2c(-c3nncn3C)cnn2C)cc(N2Cc3c(cc(CO[C@@H]4CCC[C@@H]4O)cc3C(F)(F)F)C2=O)n1` [ADH-1, 2-[6-(Ethylamino)-4-[2-methyl-4-(4-methyl-1,2,4-triazol-3-yl)pyrazol-3-yl]pyridin-2-yl]-6-({[(1R,2S)-2-hydroxycyclopentyl]oxy}methyl)-4-(trifluoromethyl)-3H-isoindol-1-one], in assay [3], the IC50 was at most 200 nM. In addition, the EC50 in assay [1] (setting [6]) was under 0.2 µM; in assay [2] (setting [7]), 0.2 to 1 µM.
Take `CCNc1cc(-c2c(-c3nncn3C)cnn2C)cc(N2Cc3c(cc(CNCC4(O)CCC4)cc3C(F)(F)F)C2=O)n1` [ADJ-1, 2-[6-(Ethylamino)-4-[2-methyl-4-(4-methyl-1,2,4-triazol-3-yl)pyrazol-3-yl]pyridin-2-yl]-6-({[(1-hydroxycyclobutyl)methyl]amino}methyl)-4-(trifluoromethyl)-3H-isoindol-1-one]: in assay [3], the IC50 was at most 200 nM. Further, the EC50 in assay [1] (setting [6]) and in assay [2] (setting [7]) was under 0.2 µM throughout.
Take `Cn1cnnc1-c1cnn(C)c1-c1cccc(N2Cc3c(cc(CN[C@@H]4CCC[C@@H]4O)cc3C(F)(F)F)C2=O)c1` [ADO-2, 6-({[(1R,2S)-2-Hydroxycyclopentyl]amino}methyl)-2-{3-[2-methyl-4-(4-methyl-1,2,4-triazol-3-yl)pyrazol-3-yl]phenyl}-4-(trifluoromethyl)-3H-isoindol-1-one]: the IC50 in assay [3] is at most 200 nM. The EC50 in assay [1] (setting [6]) and in assay [2] (setting [7]) was under 0.2 µM each time.
Take `CCNc1cc(-c2ccc(C#N)cc2-c2nncn2C)cc(N2Cc3c(cccc3C(F)(F)F)C2=O)n1` [ADP-8, 4-[2-(Ethylamino)-6-[1-oxo-4-(trifluoromethyl)-3H-isoindol-2-yl]pyridin-4-yl]-3-(4-methyl-1,2,4-triazol-3-yl)benzonitrile]: in assay [3], the IC50 is at most 200 nM. Also, the EC50 is under 0.2 µM in assay [1] (setting [6]) and 1 to 10 µM in assay [2] (setting [7]).
The corresponding values for `C[C@H]1CCCN(Cc2cc3c(c(C(F)(F)F)c2)CN(c2cccc(-c4ccc(C#N)cc4-c4nncn4C)c2)C3=O)C1` [ADQ-2, 2-(4-methyl-1,2,4-triazol-3-yl)-3′-(6-{[(3S)-3-methylpiperidin-1-yl]methyl}-1-oxo-4-(trifluoromethyl)-3H-isoindol-2-yl)-[1,1′-biphenyl]-4-carbonitrile] are at most 200 nM, under 0.2 µM and under 0.2 µM.
The corresponding values for `Cn1cnnc1-c1cnn(C)c1-c1cc(C2CC2)nc(N2Cc3c(cc(CNCC4(O)CCC4)cc3C(F)(F)F)C2=O)c1` [ADR-3] are at most 200 nM, under 0.2 µM and under 0.2 µM.
Turning to `CCNc1cc(-c2ccc(C#N)cc2-c2nncn2C)cc(N2Cc3c(cc(CN4CCC[C@H](C)C4)cc3C(F)(F)F)C2=O)n1` [ADT-2, 4-[2-(Ethylamino)-6-(6-{[(3S)-3-methylpiperidin-1-yl]methyl}-1-oxo-4-(trifluoromethyl)-3H-isoindol-2-yl)pyridin-4-yl]-3-(4-methyl-1,2,4-triazol-3-yl)benzonitrile], the IC50 in assay [3] is at most 200 nM. The half-maximal effective concentration (EC50) in assay [1] (setting [6]) and in assay [2] (setting [7]) was under 0.2 µM in each case.
On to `CCNc1cc(-c2ccc(C#N)cc2-c2nncn2C)cc(N2Cc3c(cc(CN4CCC[C@@H](C)C4)cc3C(F)(F)F)C2=O)n1` [ADU-2, 4-[2-(Ethylamino)-6-(6-{[(3R)-3-methylpiperidin-1-yl]methyl}-1-oxo-4-(trifluoromethyl)-3H-isoindol-2-yl)pyridin-4-yl]-3-(4-methyl-1,2,4-triazol-3-yl) benzonitrile], for which the IC50 in assay [3] was at most 200 nM. Further, the results for the EC50 in assay [1] (setting [4]) and in assay [2] (setting [5]) were under 0.2 µM and 0.2 to 1 µM, respectively.
In the case of `Cn1cnnc1-c1cc(C#N)ccc1-c1cccc(N2Cc3c(cc(CNCC4(O)CCC4)cc3C(F)(F)F)C2=O)c1` [ADV-1, 3′-[6-({[(1-Hydroxycyclobutyl)methyl]amino}methyl)-1-oxo-4-(trifluoromethyl)-3H-isoindol-2-yl]-2-(4-methyl-1,2,4-triazol-3-yl)-[1,1′-biphenyl]-4-carbonitrile], in assay [3], the IC50 is at most 200 nM. Further, the EC50 in assay [1] (setting [6]) and in assay [2] (setting [7]) was under 0.2 µM throughout.
Turning to `CCNc1cc(-c2ccc(C#N)cc2-c2nncn2C)cc(N2Cc3c(cc(CO)cc3C(F)(F)F)C2=O)n1` [ADX-2, 4-[2-(Ethylamino)-6-[6-(hydroxymethyl)-1-oxo-4-(trifluoromethyl)-3H-isoindol-2-yl]pyridin-4-yl]-3-(4-methyl-1,2,4-triazol-3-yl) benzonitrile], the IC50 in assay [3] was at most 200 nM. Also, the values for the EC50 in assay [1] (setting [6]) and in assay [2] (setting [7]) were under 0.2 µM and 0.2 to 1 µM, respectively.
Take `Cn1cnnc1-c1ccccc1-c1cc(C2CC2)nc(N2Cc3c(cc(CNCC4(O)CCC4)cc3C(F)(F)F)C2=O)c1` [ADZ-2, 2-{6-Cyclopropyl-4-[2-(4-methyl-1,2,4-triazol-3-yl)phenyl]pyridin-2-yl}-6-({[(1-hydroxycyclobutyl)methyl]amino}methyl)-4-(trifluoromethyl)-3H-isoindol-1-one]: in assay [3], the IC50 was at most 200 nM. Moreover, the EC50 in assay [1] (setting [6]) and in assay [2] (setting [7]) was under 0.2 µM each time.
Regarding `COCCNCc1cc2c(c(C(F)(F)F)c1)CN(c1cccc(-c3ccc(C#N)cc3-c3nncn3C)c1)C2=O` [AEB-2, 3′-(6-(((2-Methoxyethyl)amino)methyl)-1-oxo-4-(trifluoromethyl)isoindolin-2-yl)-2-(4-methyl-4H-1,2,4-triazol-3-yl)-[1,1′-biphenyl]-4-carbonitrile], the 50% inhibitory concentration (IC50) in assay [3] was at most 200 nM. The EC50 in assay [1] (setting [6]) and in assay [2] (setting [7]) was under 0.2 µM in each case.
Turning to `CCNc1cc(-c2ccc(C#N)cc2-c2nncn2C)cc(N2Cc3c(cc(CNCCOC)cc3C(F)(F)F)C2=O)n1` [AEC-2, 4-[2-(Ethylamino)-6-(6-{[(2-methoxyethyl)amino]methyl}-1-oxo-4-(trifluoromethyl)-3H-isoindol-2-yl)pyridin-4-yl]-3-(4-methyl-1,2,4-triazol-3-yl)benzonitrile], in assay [3], the IC50 was at most 200 nM. For the same molecule, the EC50 in assay [1] (setting [6]) and in assay [2] (setting [7]) was under 0.2 µM throughout.
Turning to `CCNc1cc(-c2c(-c3nncn3C)cnn2C)cc(N2Cc3c(cc(COCC4(O)CCC4)cc3C(F)(F)F)C2=O)n1` [AED-2, 2-[6-(Ethylamino)-4-[2-methyl-4-(4-methyl-1,2,4-triazol-3-yl)pyrazol-3-yl]pyridin-2-yl]-6-{[(1-hydroxycyclobutyl)methoxy]methyl}-4-(trifluoromethyl)-3H-isoindol-1-one], in assay [3], the IC50 was at most 200 nM. Also, the EC50 in assay [1] (setting [6]) is under 0.2 µM; in assay [2] (setting [7]), 0.2 to 1 µM.
The corresponding values for `CCNc1cc(-c2ccc(F)cc2-c2nncn2C)cc(N2Cc3c(cc(CO)cc3C(F)(F)F)C2=O)n1` [AEF-1, 2-(6-(Ethylamino)-4-(4-fluoro-2-(4-methyl-4H-1,2,4-triazol-3-yl)phenyl)pyridin-2-yl)-6-(hydroxymethyl)-4-(trifluoromethyl)isoindolin-1-one] are at most 200 nM, under 0.2 µM and under 0.2 µM.

Source of the values: patent US12325697B2 (Nimbus Clio, Inc., priority 2021, dated 2025).
